Measurements: US20060194837A1, “Tetrahydroisoquinoline compounds” (priority 2004, published 2006)
Like-named read-outs stand apart in the source and are kept apart here.

Assays:
[1] = biological target: T1, human H3 receptor (Homo sapiens, UniProt Q9Y5N1); assay: H3 receptor binding (N-[3H]-α-methylhistamine displacement); details: membranes of SK-N-MC cells expressing cloned human H3 receptor, 0.8 nM N-[3H]-α-methylhistamine, 60 min at 25° C.
T1 construct: expressed in transfected cells

[2] = biological target: T2, Rat SERT (Rattus norvegicus, UniProt P31652); assay: Rat brain SERT binding ([3H]-citalopram displacement); details: rat brain membranes without cerebellum, 0.6 nM [3H]-citalopram, 60 min at 25° C.
T2 construct: A rat brain without cerebellum (Zivic Laboratories, Inc.—Pittsburgh, Pa.) was homogenized; tissue Zivic Laboratories, Inc; host or cells: rat brain without cerebellum, membranes
Experimental: The supernatant was removed and re-centrifuged at 15,000 rpm for 30 min. […] Membranes were incubated with 0.6 nM [^3H]-Citalopram plus/minus test compounds for 60 min at 25° C. and harvested by rapid filtration over GF/C glass fiber filters (pretreated with 0.3% polyethylenimine) followed by four washes with ice-cold buffer.

[3] = biological target: T3, human SERT (Homo sapiens, UniProt P31645); assay: Human SERT binding (3H-citalopram displacement); details: HEK293 membranes expressing human SERT, rt 1 h
T3 construct: expressed in transfected cells; host or cells: HEK293 membranes
Experimental: Homogenized HEK293 (Human Embryonic Kidney) membranes expressing the human SERT were incubated with ^3H-citalopram (SERT) at rt for 1 h in 50 mM Tris, 120 mM NaCl, 5 mM KCl (pH 7.4). […] The membranes were washed and the radioactivity was counted as above.

T1 sequence (Q9Y5N1 whole entry): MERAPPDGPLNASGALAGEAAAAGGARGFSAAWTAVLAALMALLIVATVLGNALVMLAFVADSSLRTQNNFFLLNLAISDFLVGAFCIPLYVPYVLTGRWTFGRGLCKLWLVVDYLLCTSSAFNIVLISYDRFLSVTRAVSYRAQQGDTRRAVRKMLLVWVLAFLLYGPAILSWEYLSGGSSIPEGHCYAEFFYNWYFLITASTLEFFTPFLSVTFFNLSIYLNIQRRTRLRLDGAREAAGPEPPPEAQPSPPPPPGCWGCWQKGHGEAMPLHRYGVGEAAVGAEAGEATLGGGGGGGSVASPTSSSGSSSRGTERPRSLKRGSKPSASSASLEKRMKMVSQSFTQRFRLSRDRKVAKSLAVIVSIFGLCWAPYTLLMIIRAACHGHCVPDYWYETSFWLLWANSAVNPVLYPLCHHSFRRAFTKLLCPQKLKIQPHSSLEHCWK
T3 sequence (P31645 whole entry): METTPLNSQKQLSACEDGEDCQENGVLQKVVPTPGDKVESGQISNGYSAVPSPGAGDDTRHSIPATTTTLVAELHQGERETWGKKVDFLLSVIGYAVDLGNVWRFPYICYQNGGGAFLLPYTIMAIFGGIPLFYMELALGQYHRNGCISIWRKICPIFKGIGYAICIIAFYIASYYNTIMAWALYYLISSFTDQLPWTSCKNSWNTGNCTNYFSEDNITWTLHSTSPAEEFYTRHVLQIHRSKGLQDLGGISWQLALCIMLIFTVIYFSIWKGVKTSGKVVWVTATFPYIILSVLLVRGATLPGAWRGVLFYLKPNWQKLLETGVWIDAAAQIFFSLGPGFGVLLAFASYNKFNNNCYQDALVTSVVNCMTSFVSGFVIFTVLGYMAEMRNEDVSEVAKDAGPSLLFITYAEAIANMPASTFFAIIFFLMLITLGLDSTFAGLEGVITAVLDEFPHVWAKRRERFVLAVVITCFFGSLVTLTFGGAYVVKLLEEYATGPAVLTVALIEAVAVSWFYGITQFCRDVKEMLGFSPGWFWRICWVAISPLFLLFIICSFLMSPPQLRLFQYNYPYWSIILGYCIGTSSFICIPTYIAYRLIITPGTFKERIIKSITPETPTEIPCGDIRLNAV
T2 sequence (P31652 whole entry): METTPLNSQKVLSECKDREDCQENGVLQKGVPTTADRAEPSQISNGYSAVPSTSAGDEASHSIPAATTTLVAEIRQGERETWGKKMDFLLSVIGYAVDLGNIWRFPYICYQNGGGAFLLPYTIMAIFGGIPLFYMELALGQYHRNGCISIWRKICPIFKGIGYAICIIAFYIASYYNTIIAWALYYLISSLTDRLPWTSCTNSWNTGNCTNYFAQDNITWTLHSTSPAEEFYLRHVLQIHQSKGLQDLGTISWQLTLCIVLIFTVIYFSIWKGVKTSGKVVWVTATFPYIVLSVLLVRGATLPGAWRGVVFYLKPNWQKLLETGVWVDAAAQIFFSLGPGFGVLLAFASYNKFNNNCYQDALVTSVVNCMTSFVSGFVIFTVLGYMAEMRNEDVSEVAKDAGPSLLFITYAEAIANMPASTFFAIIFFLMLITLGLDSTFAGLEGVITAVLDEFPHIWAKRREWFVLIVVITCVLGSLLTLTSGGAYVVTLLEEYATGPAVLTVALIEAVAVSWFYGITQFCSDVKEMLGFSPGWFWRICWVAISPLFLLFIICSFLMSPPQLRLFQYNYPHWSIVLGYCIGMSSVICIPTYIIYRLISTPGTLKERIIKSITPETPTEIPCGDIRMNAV

SMILES | Ki [1] | Ki ([2]; read-out: Rat SERT Ki) | Ki [3] | Ki ([2]; Rat SERT Ki (nM))
CN1Cc2cc(OCCCN3CCC(F)CC3)ccc2C(c2cccc(Cl)c2)C1 (stereo not drawn) [Example 46, 4-(3-Chloro-phenyl)-7-[3-(4-fluoro-piperidin-1-yl)-propoxy]-2-methyl-1,2,3,4-tetrahydro-isoquinoline] | 3 nM | 14 nM | 26 nM | –
COc1ccc(C2CN(C)Cc3cc(OCCCN4CCCC(F)(F)C4)ccc32)cc1 (single isomer, unassigned) [Example 29A, 7-[3-(3,3-Difluoro-piperidin-1-yl)-propoxy]-4-(4-methoxy-phenyl)-2-methyl-1,2,3,4-tetrahydro-isoquinoline] | – | – | 13 nM | –
CSc1ccc(C2CN(C)Cc3cc(OCCCN4CCC(F)CC4)ccc32)cc1 (single isomer, unassigned) [Example 153, 7-[3-(4-Fluoro-piperidin-1-yl)-propoxy]-2-methyl-4-(4-methylsulfanyl-phenyl)-1,2,3,4-tetrahydro-isoquinoline] | – | – | 2 nM | 2 nM
COc1cccc(C2CN(C)Cc3cc(OCC4CCNCC4)ccc32)c1 (stereo not drawn) [Example 241, 4-(3-Methoxy-phenyl)-2-methyl-7-(piperidin-4-ylmethoxy)-1,2,3,4-tetrahydro-isoquinoline] | 39 nM | – | 10 nM | –
COc1ccc(C2CN(C)Cc3cc(OCCCN4CCC(F)CC4)ccc32)cc1Cl (stereo not drawn) [Example 53, 4-(3-Chloro-4-methoxy-phenyl)-7-[3-(4-fluoro-piperidin-1-yl)-propoxy]-2-methyl-1,2,3,4-tetrahydro-isoquinoline] | – | 5 nM | 4 nM | –
CSc1ccc(C2CN(C)Cc3cc(OCCCN4CCC(F)CC4)ccc32)cc1 (single isomer, unassigned) [Example 154, 7-[3-(4-Fluoro-piperidin-1-yl)-propoxy]-2-methyl-4-(4-methylsulfanyl-phenyl)-1,2,3,4-tetrahydro-isoquinoline] | – | – | 4 nM | 5 nM
CSc1ccc(C2CN(C)Cc3cc(OCCCN4CCC(F)CC4)ccc32)cc1 (stereo not drawn) [Example 52, 7-[3-(4-Fluoro-piperidin-1-yl)-propoxy]-2-methyl-4-(4-methylsulfanyl-phenyl)-1,2,3,4-tetrahydro-isoquinoline] | – | 3 nM | 2 nM | –
CN1Cc2cc(OCCCN3CCC(F)CC3)ccc2C(c2ccc(S(C)(=O)=O)cc2)C1 (stereo not drawn) [Example 51, 7-[3-(4-Fluoro-piperidin-1-yl)-propoxy]-4-(4-methanesulfonyl-phenyl)-2-methyl-1,2,3,4-tetrahydro-isoquinoline] | – | 34 nM | 103 nM | –
COc1ccc(C2CN(C)Cc3cc(OCCCN4CCC4)ccc32)cc1 (stereo not drawn) [Example 34, 7-(3-Azetidin-1-yl-propoxy)-4-(4-methoxy-phenyl)-2-methyl-1,2,3,4-tetrahydro-isoquinoline] | – | 11 nM | 4 nM | –
CN1Cc2cc(OCCCN3CCC(F)CC3)ccc2C(c2ccc(N(C)C)nc2)C1 (stereo not drawn) [Example 188, (5-{7-[3-(4-Fluoro-piperidin-1-yl)-propoxy]-2-methyl-1,2,3,4-tetrahydro-isoquinolin-4-yl}-pyridin-2-yl)-dimethyl-amine] | 22 nM | 37 nM | – | –
COc1ccc(C2CN(C)Cc3cc(OCCCN4CCCC(F)(F)C4)ccc32)cc1 (racemic) [Example 29, 7-[3-(3,3-Difluoro-piperidin-1-yl)-propoxy]-4-(4-methoxy-phenyl)-2-methyl-1,2,3,4-tetrahydro-isoquinoline] | – | 14 nM | 8 nM | –
CN1Cc2cc(OCCCN3CCC(F)CC3)ccc2C(c2ccc(Sc3ncccn3)nc2)C1 (stereo not drawn) [Example 196, 7-[3-(4-Fluoro-piperidin-1-yl)-propoxy]-2-methyl-4-[6-(pyrimidin-2-ylsulfanyl)-pyridin-3-yl]-1,2,3,4-tetrahydro-isoquinoline] | 4 nM | 2000 nM | – | –
COc1ccc(C2CN(C)Cc3cc(OCCCN4CCC(F)CC4)ccc32)cc1F (single isomer, unassigned) [Example 143, 4-(3-Fluoro-4-methoxy-phenyl)-7-[3-(4-fluoro-piperidin-1-yl)-propoxy]-2-methyl-1,2,3,4-tetrahydro-isoquinoline] | 4 nM | 18 nM | – | –
CCCN1CCC(COc2ccc3c(c2)CN(C)CC3c2cccc(OC)c2)CC1 (stereo not drawn) [Example 93, 4-(3-Methoxy-phenyl)-2-methyl-7-(1-propyl-piperidin-4-ylmethoxy) 1,2,3,4-tetrahydro-isoquinoline] | 6 nM | 22 nM | – | –
COc1ccc(C2CN([C@H](C)c3ccccc3)Cc3cc(OCCCN4CCOCC4)ccc32)cc1 (single isomer, unassigned) [Example 75, 4-(4-Methoxy-phenyl)-7-(3-morpholin-4-yl-propoxy)-2-(1-phenyl-ethyl)-1,2,3,4-tetrahydro-isoquinoline] | 14 nM | 79 nM | – | –

The remaining molecules from weak to strong by Ki ([2]; read-out: Rat SERT Ki), led by results:

Ki [1] | Ki ([2]; read-out: Rat SERT Ki) | Ki [3] | SMILES | Ki ([2]; Rat SERT Ki (nM))
2 nM | 10 nM | 6 nM | COc1ccc(C2CN(C)Cc3cc(OC4CCN(C5CCOCC5)CC4)ccc32)cc1 (stereo not drawn) [Example 121, 4-(4-Methoxy-phenyl)-2-methyl-7-[1-(tetrahydro-pyran-4-yl)-piperidin-4-yloxy]-1,2,3,4-tetrahydro-isoquinoline] | –
99 nM | 10 nM | – | COc1ccc(C2CN(C)Cc3cc(OCCCN4CCN(CC5CCCO5)CC4)ccc32)cc1 (stereo not drawn) [Example 210, 4-(4-Methoxy-phenyl)-2-methyl-7-{3-[4-(tetrahydro-furan-2-ylmethyl)-piperazin-1-yl]-propoxy}-1,2,3,4-tetrahydro-isoquinoline] | –
4 nM | 9 nM | 20 nM | CN1Cc2cc(OCCCN3CCC(F)CC3)ccc2C(c2ccc(C#N)cc2)C1 (stereo not drawn) [Example 136, 4-{7-[3-(4-Fluoro-piperidin-1-yl)-propoxy]-2-methyl-1,2,3,4-tetrahydro-isoquinolin-4-yl}-benzonitrile] | –
43 nM | 9 nM | – | COc1ccc(C2CN(C)Cc3cc(OCCCN4CCN(C5CC5)CC4)ccc32)cc1 (stereo not drawn) [Example 212, 7-[3-(4-Cyclopropyl-piperazin-1-yl)-propoxy]-4-(4-methoxy-phenyl)-2-methyl-1,2,3,4-tetrahydro-isoquinoline] | –
7 nM | 8 nM | 3 nM | CSc1ccc(C2CN(C)Cc3cc(OCC4CCN(C(C)C)CC4)ccc32)cc1 (stereo not drawn) [Example 103, 7-(1-Isopropyl-piperidin-4-ylmethoxy)-2-methyl-4-(4-methylsulfanyl-phenyl)-1,2,3,4-tetrahydro-isoquinoline] | –
– | 8 nM | 6 nM | COc1ccc(C2CN(C)Cc3cc(OCCCN4CCCC(F)(F)C4)ccc32)cc1 (single isomer, unassigned) [Example 29B, 7-[3-(3,3-Difluoro-piperidin-1-yl)-propoxy]-4-(4-methoxy-phenyl)-2-methyl-1,2,3,4-tetrahydro-isoquinoline] | –
– | 6 nM | 9 nM | COc1ccc(C2CN(C)Cc3cc(OCCCN4CCC(F)CC4)ccc32)cc1 (single isomer, unassigned) [Example 1A, 7-[3-(4-Fluoro-piperidin-1-yl)-propoxy]-4-(4-methoxy-phenyl)-2-methyl-1,2,3,4-tetrahydro-isoquinoline] | –
64 nM | 6 nM | – | COc1ccc(C2CN(C)Cc3cc(OCC4CCNCC4)ccc32)c(F)c1 (stereo not drawn) [Example 82, 4-(2-Fluoro-4-methoxy-phenyl)-2-methyl-7-(piperidin-4-ylmethoxy)-1,2,3,4-tetrahydro-isoquinoline] | –
124 nM | 6 nM | – | COc1ccc(C2CN(C)Cc3cc(OC4CCN(CC#N)CC4)ccc32)cc1 (stereo not drawn) [Example 242] | –
6 nM | 4 nM | 12 nM | COc1ccc(C2CN(C)Cc3cc(OCCCN4CCOC[C@@H]4C)ccc32)c(F)c1 (stereo partly drawn) [Example 220, 4-(2-Fluoro-4-methoxy-phenyl)-2-methyl-7-[3-(3S-methyl-morpholin-4-yl)-propoxy]-1,2,3,4-tetrahydro-isoquinoline] | –
10 nM | 2 nM | 2 nM | CCN1CCN(CCCOc2ccc3c(c2)CN(C)CC3c2ccc(OC)cc2)CC1 (stereo not drawn) [Example 198, 7-[3-(4-Ethyl-piperazin-1-yl)-propoxy]-4-(4-methoxy-phenyl)-2-methyl-1,2,3,4-tetrahydro-isoquinoline] | –
– | 2 nM | 3 nM | COc1ccc(C2CN(C)Cc3cc(OCCCN4CCC(F)CC4)ccc32)cc1 (single isomer, unassigned) [Example 1B, 7-[3-(4-Fluoro-piperidin-1-yl)-propoxy]-4-(4-methoxy-phenyl)-2-methyl-1,2,3,4-tetrahydro-isoquinoline] | –
– | 2 nM | 3 nM | COc1ccc(C2CN(C)Cc3cc(OCCCN4CCC(F)CC4)ccc32)cc1 (racemic) [Example 1, 7-[3-(4-Fluoro-piperidin-1-yl)-propoxy]-4-(4-methoxy-phenyl)-2-methyl-1,2,3,4-tetrahydro-isoquinoline] | –
59 nM | 2 nM | – | COc1ccc(C2CN(C)Cc3cc(OCCCN4CC(F)(F)C4)ccc32)cc1 (stereo not drawn) [Example 182, 7-[3-(3,3-Difluoro-azetidin-1-yl)-propoxy]-4-(4-methoxy-phenyl)-2-methyl-1,2,3,4-tetrahydro-isoquinoline] | –
